MIC data for 1 compound are collected here from ChEMBL document CHEMBL5104130, “Synthesis of a tricyclic hexapeptide -via two consecutive ruthenium-catalyzed macrocyclization steps- with a constrained topology to mimic vancomycin's binding properties toward D-Ala-D-Ala dipeptide” (2022).

The test has as its system Staphylococcus aureus. The test is described as follows: Antibacterial activity against vancomycin-sensitive Staphylococcus aureus ATCC 49320 assessed as inhibition of bacterial growth incubated for 24 hrs. The format is functional.

In brackets after ≈: the same amount, converted by molar mass.

Take `CN[C@H](CC(C)C)C(=O)N[C@@H]1CCCCn2nncc2-c2cc3cc(c2OC)-c2cnnn2CCCC[C@@H]2NC(=O)[C@@H](C/C=C/Cc4ccccc4NC2=O)NC(=O)[C@@H]3NC(=O)[C@H](C)NC1=O`: the MIC was found to be 37.5 µg/mL (≈ 40.8 µM).

By MIC is commonly meant the lowest concentration that inhibits growth of the organism.
